Like-named read-outs stand apart in the source and are kept apart here. Marks after values point to notes of the source that are not given here. Blank lines part the entries; values can stand above or below the compound they belong to.
Tests used:
FXR [1] = target: T1, FXR (Homo sapiens, UniProt Q96RI1); test: PathHunter NHR protein interaction assay, agonist mode (FXR)
T1 sequence (Q96RI1 1-486): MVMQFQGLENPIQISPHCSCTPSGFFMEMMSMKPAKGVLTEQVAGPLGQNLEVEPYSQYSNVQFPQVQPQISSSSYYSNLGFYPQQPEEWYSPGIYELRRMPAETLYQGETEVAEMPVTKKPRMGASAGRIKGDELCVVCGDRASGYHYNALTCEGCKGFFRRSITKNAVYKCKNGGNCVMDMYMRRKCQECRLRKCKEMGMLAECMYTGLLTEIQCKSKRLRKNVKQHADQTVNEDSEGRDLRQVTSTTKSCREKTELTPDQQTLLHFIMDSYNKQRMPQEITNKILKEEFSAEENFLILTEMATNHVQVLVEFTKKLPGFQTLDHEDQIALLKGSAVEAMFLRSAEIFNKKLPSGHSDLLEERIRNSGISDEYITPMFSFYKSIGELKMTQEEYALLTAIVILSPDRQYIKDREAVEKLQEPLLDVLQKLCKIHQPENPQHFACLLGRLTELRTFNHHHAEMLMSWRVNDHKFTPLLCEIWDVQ
Description: PathHunter® CHO-K1 FXR protein interaction cells were expanded from freezer stocks according to standard procedures. Cells were seeded in a total volume of 20 μL into white walled, 384-well microplates and incubated at 37° C. for the appropriate time prior to testing. Assay media contained charcoal-dextran filtered serum to reduce the level of hormones present. For agonist determination, cells were incubated with sample to induce response. […] For antagonist determination, cells were pre-incubated with antagonist followed by agonist challenge at the EC80 concentration. […] Microplates were read following signal generation with a PerkinElmer Envision™ instrument for chemiluminescent signal detection. Compound activity was analyzed using CBIS data analysis suite (ChemInnovation, CA). For agonist mode assays, percentage activity was calculated using the following formula: % Activity=100%×(mean RLU of test sample−mean RLU of vehicle control)/(mean MAX control ligand−mean RLU of vehicle control).
In this assay, two weakly complementing fragments of the β-galactosidase are expressed within stably transfected cells. The complementing fragments of the β-galactosidase are translationally fused to the C-terminus of a full-length FXR and to the steroid receptor coactivator peptide (SRCP), respectively. When bound by ligand, the FXR will migrate to the nucleus and recruit the SRCP domain, whereby complementation occurs, generating a unit of active β-galactosidase and production of chemiluminescent signal. Thus, measurement of chemiluminescent signal directly reflects FXR-coactivator interaction.

Erα = target: T2, Erα (Homo sapiens, UniProt P03372); test: Nuclear receptor selectivity panel (PathHunter NHR protein interaction assay); details: relative to 17β-estradiol
T2 sequence (P03372 1-595): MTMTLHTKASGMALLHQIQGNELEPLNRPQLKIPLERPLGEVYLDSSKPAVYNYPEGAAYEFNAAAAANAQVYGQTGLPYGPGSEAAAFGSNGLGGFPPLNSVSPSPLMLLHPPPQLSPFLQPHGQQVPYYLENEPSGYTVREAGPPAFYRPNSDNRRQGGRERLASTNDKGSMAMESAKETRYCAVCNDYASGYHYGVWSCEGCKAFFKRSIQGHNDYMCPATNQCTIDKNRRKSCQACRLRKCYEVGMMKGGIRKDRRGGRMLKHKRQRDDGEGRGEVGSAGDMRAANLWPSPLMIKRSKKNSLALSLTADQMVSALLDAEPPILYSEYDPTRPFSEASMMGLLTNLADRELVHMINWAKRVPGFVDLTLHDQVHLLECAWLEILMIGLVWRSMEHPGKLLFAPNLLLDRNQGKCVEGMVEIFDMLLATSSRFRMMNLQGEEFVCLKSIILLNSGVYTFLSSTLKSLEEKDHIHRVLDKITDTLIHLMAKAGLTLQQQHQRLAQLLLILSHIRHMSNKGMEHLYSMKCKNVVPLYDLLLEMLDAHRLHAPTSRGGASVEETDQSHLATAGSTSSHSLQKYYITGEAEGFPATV

LXRβ = target: T3, LXRβ (Homo sapiens, UniProt P55055); test: as above; details: read-out: % max. rel. efficacy at 100 uM, 100 μM; relative to TO901317
T3 sequence (P55055 1-460): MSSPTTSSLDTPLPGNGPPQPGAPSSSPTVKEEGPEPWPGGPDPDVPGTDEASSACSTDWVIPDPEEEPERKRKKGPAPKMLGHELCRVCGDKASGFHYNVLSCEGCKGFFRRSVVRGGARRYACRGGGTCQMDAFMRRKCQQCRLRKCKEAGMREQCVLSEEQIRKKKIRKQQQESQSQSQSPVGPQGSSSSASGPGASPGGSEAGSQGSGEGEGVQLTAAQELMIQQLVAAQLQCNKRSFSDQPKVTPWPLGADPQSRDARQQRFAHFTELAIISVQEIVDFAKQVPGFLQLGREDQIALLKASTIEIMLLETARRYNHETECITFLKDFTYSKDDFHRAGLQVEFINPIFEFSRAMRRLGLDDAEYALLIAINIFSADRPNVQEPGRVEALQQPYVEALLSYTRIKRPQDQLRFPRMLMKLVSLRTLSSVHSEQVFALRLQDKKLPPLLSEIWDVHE

PPARγ = target: T4, PPARγ (Homo sapiens, UniProt P37231); test: as above; details: read-out: % max. rel. efficacy at 100 uM, 100 μM; relative to troglitazone
T4 sequence (P37231 1-505): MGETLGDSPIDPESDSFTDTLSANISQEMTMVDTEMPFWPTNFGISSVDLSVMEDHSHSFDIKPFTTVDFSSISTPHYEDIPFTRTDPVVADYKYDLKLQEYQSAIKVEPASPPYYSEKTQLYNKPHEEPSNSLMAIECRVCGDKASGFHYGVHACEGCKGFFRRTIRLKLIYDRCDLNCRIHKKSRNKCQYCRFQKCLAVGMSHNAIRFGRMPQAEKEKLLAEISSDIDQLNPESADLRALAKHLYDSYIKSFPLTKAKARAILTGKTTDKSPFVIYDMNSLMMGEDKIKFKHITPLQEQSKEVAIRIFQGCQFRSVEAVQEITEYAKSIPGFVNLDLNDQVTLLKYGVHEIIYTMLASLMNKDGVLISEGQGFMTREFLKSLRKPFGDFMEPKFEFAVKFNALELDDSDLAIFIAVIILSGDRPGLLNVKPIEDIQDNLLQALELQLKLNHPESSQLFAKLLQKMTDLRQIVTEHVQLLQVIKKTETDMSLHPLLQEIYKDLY

FXR [2] = target: T1, FXR; test: PathHunter NHR protein interaction assay, antagonist mode (GW4064 challenge at EC80); assay type: cell-based; details: pre-incubation, then GW4064 at EC80
[3] = Pharmacokinetic studies of Example 11 in rats; assay type: in vivo, Sprague-Dawley rats
Description: To investigate whether Example 11 is indeed an intestine-selective/specific FXR agonist, its pharmacokinetic profile was evaluated. Male Sprague-Dawley rats (7-week old, 240-260 g) were purchased from Orient Bio. Inc. (Seongnam, Korea). Rats were kept in the cage maintained under a controlled environment (temperature of 23±3° C., relative humidity of 50±5%, and 12 h dark-light cycle) for at least 3 days. Rats were fasted overnight before dose administration. The Example 11 was dissolved in a mixture of DMSO, Tween 80, and 0.9% saline solution (v:v:v, 1:1:8) at a concentration of 2.5 mg/mL for intravenous injection (IV). Also, Example 11 was dissolved in corn oil for oral administration (PO). Rats were divided into two groups; IV group and PO group including at least 6 animals per group. After anesthetized with isoflurane, rats were given the dose of 5 mg/kg via IV injection or 80 mg/kg via PO administration by oral gavage into the stomach. Blood samples (approximately 0.25 mL) were obtained by subclavian vein puncture at 0, 0.033, 0.083, 0.167, 0.333, 0.667, 1, 2, 3, 5, 7, 10, and 24 h after IV injection. After PO administration, blood samples were obtained at 0, 0.083, 0.167, 0.333, 0.667, 1, 2, 3, 5, 7, 10, and 24 h post-dose. Subsequently, blood samples were collected in 1.5-mL Eppendorf tube on an ice. The tubes were centrifuged at 13500 rpm for 15 min at 4° C. to separate the plasma fraction. Then, the plasma samples were stored at […] until HPLC analysis. To prepare the samples for HPLC analysis, 5 μL of Example 11 or Example 24 and 5 μL of internal standard, Example 4 were added to 45 μL of plasma. For extraction, 45 μL of MeCN was added to the mixture. Then, the mixture was vortexed for 2 min and centrifuged at 13500 rpm for 15 min at room temperature. The 60 μL of clear supernatant was transferred to an insert. Then, the HPLC auto-injector was programmed to inject 40 μL of the sample to the HPLC system for analysis. The linearity of the calibration curve was obtained by plotting the peak area ratio (area of Example 11 or area of Example 24/area of Example 4). Pharmacokinetic parameters were calculated by non-compartmental analysis of the plasma concentration-time profiles using Winnonlin® Professional version 8.01 software (Pharsight Corporation, Mountain View, CA). Oral bioavailability (F) was calculated by the ratio of the dose-corrected area under the plasma drug concentration-time curve (AUClast) between oral administration and intravenous injection.

[4] = Fang et al., Nat. Med. 2015; cited from earlier work
PPARδ = target: T5, PPARδ (Homo sapiens, UniProt Q03181); test: Nuclear receptor selectivity panel (PathHunter NHR protein interaction assay); details: read-out: ref. compd (EC50); reference compound for PPARδ
T5 sequence (Q03181 1-441): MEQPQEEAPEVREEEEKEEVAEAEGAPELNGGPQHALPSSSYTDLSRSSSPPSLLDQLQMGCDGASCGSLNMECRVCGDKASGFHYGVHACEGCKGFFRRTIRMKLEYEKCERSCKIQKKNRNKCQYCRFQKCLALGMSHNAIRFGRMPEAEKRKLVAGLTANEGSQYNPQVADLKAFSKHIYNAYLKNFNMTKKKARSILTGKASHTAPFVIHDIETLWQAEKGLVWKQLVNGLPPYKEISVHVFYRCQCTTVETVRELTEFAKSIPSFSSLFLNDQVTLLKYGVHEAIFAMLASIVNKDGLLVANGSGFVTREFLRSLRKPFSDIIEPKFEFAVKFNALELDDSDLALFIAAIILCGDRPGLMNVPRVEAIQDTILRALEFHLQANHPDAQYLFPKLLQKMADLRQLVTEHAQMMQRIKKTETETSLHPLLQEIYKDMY

[5] = test system: patients with non-cirrhotic NASH; details: 100 mg, Phase II; cited from earlier work
FXR [6] = target: T1, FXR; details: Chianelli et al., J. Med. Chem. 2020; cited from earlier work
patients with NASH = details: cited from earlier work
[7] = Table 2, 5 concentrations, 3-fold dilution from 3.3 μM (GW4064: 10 conc. from 10 μM), one experiment in duplicate, NA = inactive at 3.3 μM
[8] = Table 5, relative to GW4064, mean ± SEM of two or three independent experiments in duplicate
[9] = read-out: % max. rel. efficacy, Table 2, relative to GW4064, top conc. 3.3 μM, one experiment in duplicate
[10] = read-out: % max. rel. efficacy, Table 4, relative to GW4064, top conc. 3.3 μM, one experiment in duplicate
[11] = read-out: % max. rel. efficacy, Table 5, relative to GW4064, mean ± SEM of two or three independent experiments in duplicate
[12] = rat plasma, intravenous dose of Example 11, 5 mg/kg, Example 24 measured as metabolite
[13] = rat, intravenous dose of Example 11, 5 mg/kg, Example 24 measured as metabolite

EC50 (FXR [1]): 1000 nM
EC50 (FXR [1]; [7]): 800 nM
EC50 (FXR [1]; Table 5, mean ± SEM of two or three independent experiments in duplicate): 800 ± 100 nM
% max. rel. efficacy (FXR [1]; [8]): 40 ± 8^b %
Emax at 100 µM (FXR [1]; read-out: % max. rel. efficacy at 100 uM, Table 3, 100 μM, relative to GW4064): 47%
Emax (FXR [1]; [9]): 24%
Emax (FXR [1]; [10]): 47%
Emax (FXR [1]; [11]): 40 ± 8%
% max. rel. efficacy at 100 uM (Erα): 1%
Emax at 100 µM (LXRβ): < 3%
Emax at 100 µM (PPARγ): < 3%
SMILES: COC(=O)/C=C/c1cccc(N(Cc2ccc(-c3ccc(N(C)C)cc3)c(C#N)c2)C(=O)C2CCCCC2)c1 [Example 4, (E)-3-(3-((2-cyano-4′-dimethylaminobiphenyl-4-ylmethyl)cyclohexanecarbonylamino)phenyl)acrylic Acid Methyl Ester]

% antagonistic efficacy (FXR [2]; 3.3 μM): 7%
% antagonistic efficacy (FXR [2]; 10 μM): 26%
AUClast [3, 12]: 1200 ± 100 ng·h/mL
t1/2 [3, 12]: 14.4 ± 3 min
detected in plasma until (time after administration) ([3]; rat, intravenous Example 11, 5 mg/kg, metabolite): 1 h
CL [3, 13]: 70 ± 6.7 mL/min/kg
Vss [3, 13]: 1.4 ± 0.2 L/kg
detected after (time after oral administration) ([3]; rat, oral Example 11, 80 mg/kg): 3 h
% agonistic efficacy (FXR [1]; Table 7, 10 μM): 0%
SMILES: CN(C)c1ccc(-c2ccc(CN(C(=O)C3CCCCC3)c3cc(F)cc(/C=C/C(=O)O)c3)cc2C#N)cc1 [Example 24]

EC50 (FXR [1]): 1000 nM
EC50 (FXR [1]; [7]): 800 nM
% max. rel. efficacy (FXR [1]; [8]): 29 ± 4^b %
Emax (FXR [1]; [9]): 21%
Emax (FXR [1]; [10]): 34%
Emax (FXR [1]; [11]): 29 ± 4%
SMILES: COC(=O)/C=C/c1cccc(N(Cc2ccc(-c3ccc(N(C)C)cc3)cc2)C(=O)C2CCCCC2)c1 [Fexaramine, reference compound]
oral bioavailability [4]: 12%

EC50 (PPARδ): 6 nM
SMILES: CCCc1c(OCCCOc2ccc(OCC(=O)O)cc2)ccc(C(C)=O)c1O [L-165,041]

SMILES: O=C(O)c1ccnc(N2CC(O)(c3ccc(OCc4c(-c5c(Cl)cccc5Cl)noc4C4CC4)cc3Cl)C2)c1 [cilofexor]
median relative decrease in hepatic steatosis [5]: −22.7%
moderate to severe pruritus (patients) [5]: 14%

SMILES: Cn1nc(C(=O)N(Cc2ccccc2)Cc2ccc(C(=O)O)cc2)c2c1-c1cc(Cl)ccc1OC2 [nidufexor]
maximum efficacy relative to GW4064 (FXR [6]): 57%
reduction of LFC (liver fat content) (patients with NASH; Phase II, NASH): about 30%
rate of pruritus (patients with NASH; high-dose group): 54%
rate of pruritus (patients with NASH; low-dose group): 30%

Source: patent US12522562B2, “Intestine-specific partial agonists of farnesoid X receptor and uses thereof” (EWHA DrugDesignHouse Co., Ltd., priority 2022, dated 2026)
